Data published in patent EP4653448A1, “COMPOUND FOR RNA CAPPING AND USE THEREOF” (Guangzhou Henovcom Bioscience Co. Ltd., priority 2023, dated 2024).

Assays:
[1] = tested on: HEK293T cells; assay: Expression efficiency of capped luciferase mRNAs in HEK293T cells; type: cell-based; conditions: 6 h after transfection of capped luciferase mRNA
Protocol: • 1) HNE293T cells were cultured in DMEM medium containing 10% FBS and penicillin/streptomycin at 37°C and 5% CO2. • 2) The cultured HEK293T cells were spread in a 96-well plate with 1.25 × 10^4 cells per well. • 3) After the cells completely adhered to the wall, 0.5 µg of a mixture of mRNA sample and Polyplus jet[…] was added to each well of cells, and cultured at 37°C and 5% CO2 for 6 h. • 4) The growth medium was removed from the cells to be tested and the cells were rinsed with PBS. After centrifugation to remove PBS, 50 µL of 1x lysis buffer was added thereto, and cells and all liquid were transferred to a microcentrifuge tube, and then centrifuged at 12000 x g at 4°C for 2 min. • 5) The supernatant was transferred to a new tube. Fluorescence readings were detected using the ONE-Glo Luciferase Assay System Kit.
All test compounds, N-7413, negative control and blank control were tested under the same conditions, and some experimental results in the test results are shown in Table 3. Table 3. Relative fluorescence readings for capped mRNAs
The assay was performed according to the method described in Example 21. All test compounds, N-7413, negative control and blank control were tested under the same conditions, and some experimental results in the test results are shown in Table 5. Table 5 Relative fluorescence readings for capped mRNAs

[2] = biological target: T7 RNA Polymerase (Escherichia phage T7, UniProt P00573); assay: Detection of the efficiency of mRNA capping synthesis (in vitro transcription, product yield); type: biochemical; conditions: 20 µL mRNA synthesis reaction system
Chain of T7 RNA Polymerase (P00573 whole entry): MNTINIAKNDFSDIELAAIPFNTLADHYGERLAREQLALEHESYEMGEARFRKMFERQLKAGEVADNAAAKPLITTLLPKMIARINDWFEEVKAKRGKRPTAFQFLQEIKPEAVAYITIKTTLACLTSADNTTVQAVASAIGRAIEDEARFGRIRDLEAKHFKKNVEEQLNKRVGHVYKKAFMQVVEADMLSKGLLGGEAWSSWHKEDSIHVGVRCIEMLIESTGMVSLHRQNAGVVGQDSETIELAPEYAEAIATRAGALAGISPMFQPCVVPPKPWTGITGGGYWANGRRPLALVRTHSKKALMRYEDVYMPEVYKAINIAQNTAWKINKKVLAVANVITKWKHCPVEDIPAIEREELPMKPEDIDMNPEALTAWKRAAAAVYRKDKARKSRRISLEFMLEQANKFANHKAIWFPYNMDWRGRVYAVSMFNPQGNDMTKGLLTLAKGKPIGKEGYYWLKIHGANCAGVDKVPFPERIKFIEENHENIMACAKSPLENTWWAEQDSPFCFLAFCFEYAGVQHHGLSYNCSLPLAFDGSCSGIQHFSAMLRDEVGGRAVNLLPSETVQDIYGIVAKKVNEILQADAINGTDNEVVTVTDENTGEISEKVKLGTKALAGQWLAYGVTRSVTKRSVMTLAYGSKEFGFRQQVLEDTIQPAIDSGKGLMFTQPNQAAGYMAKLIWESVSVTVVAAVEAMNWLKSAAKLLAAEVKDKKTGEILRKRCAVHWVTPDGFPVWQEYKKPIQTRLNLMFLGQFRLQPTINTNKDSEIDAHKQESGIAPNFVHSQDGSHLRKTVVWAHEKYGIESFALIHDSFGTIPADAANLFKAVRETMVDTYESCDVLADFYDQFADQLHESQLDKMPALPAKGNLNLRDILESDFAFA
Protocol: • 1) The plasmids were linearized and the DNA templates were purified. • 2) The mRNA was synthesized by in vitro transcription, using the capping structure prepared in the present disclosure, positive control CleanCap®AG (3'OMe) (Trilink, N-7413), negative control (uncapped mRNA) and blank control (DNase/RNase-Free water), respectively. Reaction system
The reaction was carried out at 37°C for 2 to 3 h. TURBO DNase digestion was carried out for 15 min. The mRNA was precipitated by LiCl for 30 min or more or overnight, and the mRNA precipitate was washed with 75% ethanol, dried briefly to evaporate the ethanol, and the mRNA was redissolved with RNase-Free water.
In the reaction system listed in Table 1, since the solubility of different test compounds varies in different solutions, adjustments can be made as needed. For ease of operation, the commonly used concentrations are 10 mM and 100 mM. […] If the initial concentration of the test compound is 10 mM, the dosage is 8 µL. Regardless of the initial concentration, the dosages of different test compounds were the same, and the final concentrations were also the same.
For example, when testing compounds S17 and S19, their initial concentration was 10 mM, and the addition volume was 8 µL. When testing compounds 5 and 6, their initial concentration was 100 mM, and the addition volume was 0.8 µL.
The assay was performed according to the method described in Example 20.

[3] = reading of N-7413 = 1 (Table 5)
[4] = test compound 4 mM, 37°C 2 to 3 h (Table 2)
[5] = 0.5 µg per well, reading of N-7413 = 1 (Table 3)

SMILES: COC[C@]1(F)[C@@H](COP(=O)(O)OP(=O)(O)OP(=O)(O)OC[C@H]2O[C@@H](n3cnc4c(N)ncnc43)[C@H](OC)[C@@H]2OP(=O)([O-])OC[C@H]2O[C@@H](n3cnc4c(=O)[nH]c(N)nc43)[C@H](O)[C@@H]2O)O[C@@H](n2c[n+](C)c3c(=O)[nH]c(N)nc32)[C@@H]1O [Compound D1]
- Relative fluorescence reading [1, 3]: 2.07

SMILES: COC1C(OP(=O)([O-])OCC2OC(n3cnc4c(=O)[nH]c(N)nc43)C(O)C2O)C(COP(=O)(O)OP(=O)(O)OP(=O)(O)OCC2OC(n3c[n+](C)c4c(=O)[nH]c(N)nc43)C(O)C2(F)CN=[N+]=[N-])OC1n1cnc2c(N)ncnc21 (stereo not shown) [Compound D20]
- Final product mass ([2]; method of Example 20 (Table 4)): 113 µg
- Relative fluorescence reading [1, 3]: 1.23

SMILES: COCC1(F)C(COP(=O)(O)OP(=O)(O)OP(=O)(O)OCC2OC(n3cnc4c(N)ncnc43)C(OC)C2OP(=O)([O-])OCC2OC(n3cnc4c(=O)[nH]c(N)nc43)C(O)C2O)OC(n2c[n+](Cc3ccc(OC)cc3)c3c(=O)[nH]c(N)nc32)C1O (stereo not shown) [Compound D94]
- Final product mass ([2]; method of Example 20 (Table 4)): 116 µg
- Relative fluorescence reading [1, 3]: 1.85

SMILES: CNc1ccccc1C(=O)NCCCCCC(=O)NC[C@H]1[C@@H](O)[C@H](n2c[n+](C)c3c(=O)[nH]c(N)nc32)O[C@@H]1COP(=O)([O-])OP(=O)(O)OP(=O)(O)OC[C@H]1O[C@@H](n2cnc3c(N)ncnc32)[C@H](OC)[C@@H]1OP(=O)(O)OC[C@H]1O[C@@H](n2cnc3c(=O)[nH]c(N)nc32)[C@H](O)[C@@H]1O [Compound S166]
- Final product mass [2, 4]: 91 µg
- Relative fluorescence reading [1, 5]: 0.87

SMILES: COCC1(F)C(COP(=O)(O)OP(=O)(O)CP(=O)(O)OCC2OC(n3cnc4c(N)ncnc43)C(OC)C2OP(=O)([O-])OCC2OC(n3cnc4c(=O)[nH]c(N)nc43)C(O)C2O)OC(n2c[n+](C)c3c(=O)[nH]c(N)nc32)C1O (stereo not shown) [Compound D24]
- Final product mass ([2]; method of Example 20 (Table 4)): 83 µg
- Relative fluorescence reading [1, 3]: 1.08

SMILES: CO[C@@H]1[C@H](OP(=O)([O-])OC[C@H]2O[C@@H](n3cnc4c(=O)[nH]c(N)nc43)[C@H](O)[C@@H]2O)[C@@H](COP(=O)(O)OP(=O)(O)OP(=O)(O)OC[C@H]2O[C@@H](n3c[n+](C)c4c(=O)[nH]c(N)nc43)[C@H](O)[C@]2(F)CNC(C)=O)O[C@H]1n1cnc2c(N)ncnc21 [Compound D31]
- Final product mass ([2]; method of Example 20 (Table 4)): 133 µg
- Relative fluorescence reading [1, 3]: 1.73

SMILES: COC1C(OP(=O)([O-])OCC2OC(n3cnc4c(=O)[nH]c(N)nc43)C(O)C2O)C(COP(=O)(O)OP(=O)(O)OP(=O)(O)OCC2OC(n3c[n+](C)c4c(=O)[nH]c(N)nc43)C(O)C2(C)F)OC1n1cnc2c(N)ncnc21 (stereo not shown) [Compound D85]
- Final product mass ([2]; method of Example 20 (Table 4)): 120 µg
- Relative fluorescence reading [1, 3]: 1.6

SMILES: COCC1(F)C(COP(=O)(O)OP(=O)(O)OP(=O)(O)OCC2OC(n3cnc4c(N)ncnc43)C(OC)C2OP(=O)([O-])OCC2OC(n3cnc4c(=O)[nH]c(N)nc43)C(O)C2O)OC(n2c[n+](Cc3ccc(F)cc3)c3c(=O)[nH]c(N)nc32)C1O (stereo not shown) [Compound D91]
- Final product mass ([2]; method of Example 20 (Table 4)): 113 µg
- Relative fluorescence reading [1, 3]: 1.93

SMILES: COCC1(F)C(COP(=O)(O)OP(=O)(O)OP(=O)(O)OCC2OC(n3cnc4c(N)ncnc43)C(OC)C2OP(=O)([O-])OCC2OC(n3cnc4c(=O)[nH]c(N)nc43)C(O)C2O)OC(n2c[n+](Cc3ccccc3)c3c(=O)[nH]c(N)nc32)C1O (stereo not shown) [Compound D88]
- Final product mass ([2]; method of Example 20 (Table 4)): 114 µg
- Relative fluorescence reading [1, 3]: 2.04

SMILES: CNc1ncnc2c1ncn2C1OC(COP(=O)(O)OP(=O)(O)OP(=O)(O)OCC2OC(n3c[n+](C)c4c(=O)[nH]c(N)nc43)C(O)C2(F)COC)C(OP(=O)([O-])OCC2OC(n3cnc4c(=O)[nH]c(N)nc43)C(O)C2O)C1OC (stereo not shown) [Compound D96]
- Final product mass ([2]; method of Example 20 (Table 4)): 94 µg
- Relative fluorescence reading [1, 3]: 2.96

SMILES: CO[C@@H]1[C@H](OP(=O)([O-])OC[C@H]2O[C@@H](n3cnc4c(=O)[nH]c(N)nc43)[C@H](O)[C@@H]2O)[C@@H](COP(=O)(O)OP(=O)(O)OP(=O)(O)OC[C@H]2O[C@@H](n3c[n+](C)c4c(=O)[nH]c(N)nc43)[C@H](O)[C@@H]2OC)O[C@H]1n1cnc2c(N)ncnc21 [Compound N-7413, reference compound]
- Final product mass ([2]; method of Example 20 (Table 4)): 122 µg
- Final product mass [2, 4]: 122 µg
- Relative fluorescence reading [1, 5]: 1.00
- Relative fluorescence reading [1, 3]: 1.00

SMILES: CNc1ncnc2c1ncn2C1OC(COP(=O)(O)OP(=O)(O)OP(=O)(O)OCC2OC(n3c[n+](C)c4c(=O)[nH]c(N)nc43)C(O)C2(C)F)C(OP(=O)([O-])OCC2OC(n3cnc4c(=O)[nH]c(N)nc43)C(O)C2O)C1OC (stereo not shown) [Compound D95]
- Final product mass ([2]; method of Example 20 (Table 4)): 111 µg
- Relative fluorescence reading [1, 3]: 0.83

SMILES: COCCOCCOCC(=O)NC[C@H]1[C@@H](O)[C@H](n2c[n+](C)c3c(=O)[nH]c(N)nc32)O[C@@H]1COP(=O)([O-])OP(=O)(O)OP(=O)(O)OC[C@H]1O[C@@H](n2cnc3c(N)ncnc32)[C@H](OC)[C@@H]1OP(=O)(O)OC[C@H]1O[C@@H](n2cnc3c(=O)[nH]c(N)nc32)[C@H](O)[C@@H]1O [Compound 5]
- Final product mass [2, 4]: 180 µg
- Relative fluorescence reading [1, 5]: 1.86

SMILES: CO[C@@H]1[C@H](OP(=O)([O-])OC[C@H]2O[C@@H](n3cnc4c(=O)[nH]c(N)nc43)[C@H](O)[C@@H]2O)[C@@H](COP(=O)(O)OP(=O)(O)OP(=O)(O)OC[C@H]2O[C@@H](n3c[n+](C)c4c(=O)[nH]c(N)nc43)[C@H](O)[C@]2(F)C(=O)N(C)C)O[C@H]1n1cnc2c(N)ncnc21 [Compound D82]
- Final product mass ([2]; method of Example 20 (Table 4)): 146 µg
- Relative fluorescence reading [1, 3]: 1.63

SMILES: COCC1(F)C(COP(=O)(O)OP(=O)(O)OP(=O)(O)OCC2OC(n3cnc4c(N)ncnc43)C(OC)C2OP(=O)([O-])OCC2OC(n3cnc4c(=O)[nH]c(N)nc43)C(O)C2O)OC(n2c[n+](Cc3ccc(Cl)cc3)c3c(=O)[nH]c(N)nc32)C1O (stereo not shown) [Compound D92]
- Final product mass ([2]; method of Example 20 (Table 4)): 109 µg
- Relative fluorescence reading [1, 3]: 1.78

SMILES: CNc1ccccc1C(=O)NC[C@H]1[C@@H](O)[C@H](n2c[n+](C)c3c(=O)[nH]c(N)nc32)O[C@@H]1COP(=O)([O-])OP(=O)(O)OP(=O)(O)OC[C@H]1O[C@@H](n2cnc3c(N)ncnc32)[C@H](OC)[C@@H]1OP(=O)(O)OC[C@H]1O[C@@H](n2cnc3c(=O)[nH]c(N)nc32)[C@H](O)[C@@H]1O [Compound S165]
- Final product mass [2, 4]: 88 µg
- Relative fluorescence reading [1, 5]: 0.34

SMILES: CO[C@@H]1[C@H](OP(=O)(O)OC[C@H]2O[C@@H](n3cnc4c(=O)[nH]c(N)nc43)[C@H](O)[C@@H]2O)[C@@H](COP(=O)(O)OP(=O)(O)OP(=O)([O-])OC[C@H]2O[C@@H](n3c[n+](C)c4c(=O)[nH]c(N)nc43)[C@H](O)[C@@H]2CNC(=O)CCCC[C@@H]2SC[C@@H]3NC(=O)N[C@@H]32)O[C@H]1n1cnc2c(N)ncnc21 [Compound S1]
- Final product mass [2, 4]: 139 µg
- Relative fluorescence reading [1, 5]: 2.41

SMILES: C=CC[n+]1cn(C2OC(COP(=O)(O)OP(=O)(O)OP(=O)(O)OCC3OC(n4cnc5c(N)ncnc54)C(OC)C3OP(=O)([O-])OCC3OC(n4cnc5c(=O)[nH]c(N)nc54)C(O)C3O)C(F)(COC)C2O)c2nc(N)[nH]c(=O)c21 (stereo not shown) [Compound D90]
- Final product mass ([2]; method of Example 20 (Table 4)): 100 µg
- Relative fluorescence reading [1, 3]: 1.44

SMILES: COCCOCCOCCOCCOCC(=O)NC[C@H]1[C@@H](O)[C@H](n2c[n+](C)c3c(=O)[nH]c(N)nc32)O[C@@H]1COP(=O)([O-])OP(=O)(O)OP(=O)(O)OC[C@H]1O[C@@H](n2cnc3c(N)ncnc32)[C@H](OC)[C@@H]1OP(=O)(O)OC[C@H]1O[C@@H](n2cnc3c(=O)[nH]c(N)nc32)[C@H](O)[C@@H]1O [Compound 6]
- Final product mass [2, 4]: 117 µg
- Relative fluorescence reading [1, 5]: 1.90

SMILES: COCC1(F)C(COP(=O)(O)OP(=O)(O)OP(=O)(O)OP(=O)(O)OCC2OC(n3cnc4c(N)ncnc43)C(OC)C2OP(=O)([O-])OCC2OC(n3cnc4c(=O)[nH]c(N)nc43)C(O)C2O)OC(n2c[n+](C)c3c(=O)[nH]c(N)nc32)C1O (stereo not shown) [Compound D28]
- Final product mass ([2]; method of Example 20 (Table 4)): 92 µg
- Relative fluorescence reading [1, 3]: 1.12

SMILES: CC[n+]1cn(C2OC(COP(=O)(O)OP(=O)(O)OP(=O)(O)OCC3OC(n4cnc5c(N)ncnc54)C(OC)C3OP(=O)([O-])OCC3OC(n4cnc5c(=O)[nH]c(N)nc54)C(O)C3O)C(F)(COC)C2O)c2nc(N)[nH]c(=O)c21 (stereo not shown) [Compound D89]
- Final product mass ([2]; method of Example 20 (Table 4)): 110 µg
- Relative fluorescence reading [1, 3]: 1.52
